Reference: the supplement of paper PMC10290057

Tested on: HCT116
Experiment: efficacy (fitted maximal change in viability relative to DMSO control); higher = less cytotoxic (negative = loss of viability)
Details: 48 h
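Also: Luminescence-based viability readout, five doses per compound, normalized against on-plate DMSO and empty-well controls, followed by dose-response curve fitting for every drug.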

| Structure (SMILES) | efficacy [%] |
| --- | --- |
| N#Cc1ccc(NC(=O)Nc2ccccc2Br)c2nn[nH]c12 | -26 |
| CC(C)(C(=O)NCC(F)(F)C(F)(F)F)C(=O)N[C@@H]1C(=O)Nc2ccccc2-c2ccccc21 | -10.6 |
| CC(C)(C)C(=O)Oc1ccc2c(c1)nc(NC(=O)c1cccc([N+](=O)[O-])c1)n2CCCO | -19.1 |
| CC(C)(O)c1coc([S+](=O)([O-])NC(=O)Nc2c3c(cc4c2CCC4)CCC3)c1 | 7.83 |
| CC(C)c1c2cc(-c3ccnc(N[C@H]4CC[C@H](NC5CCOCC5)CC4)n3)ccc2nn1C | -72.3 |
| CC(C)n1cc(-c2ccc3c(c2)N(C)CC3)c2c(N[S+](=O)([O-])c3ccn(C)n3)ccnc21 | -24.7 |
| Cc1noc(-c2ccc(CSCCC(=O)O)cc2)c1NC(=O)OC(C)c1ccccc1Cl (stereo not drawn) | -36.3 |
| Cc1cnc(-c2cc(N3CCN(C(=O)CC[S+](C)(=O)[O-])CC3)ncc2Cl)c(C)c1 | -93.8 |
| Cc1cc(SCc2sc(-c3ccc(C(F)(F)F)cc3)nc2C)ccc1OCC(=O)O | -13.6 |
| Cc1cc2c(cc1C1(c3ccc(C(=O)O)cn3)CC1)C(C)(C)CCC2(C)C | -25.8 |
| CC1=CC=CC=C1N2\C(=N/C3=C(C(=CC=C3)C)C2=O)C[N]4C=NC5=C4N=CN=C5N | -13.6 |
| Cc1c(Cn2c(C)nc3c(C(=O)O)cc(N4CCOCC4)cc32)cccc1C(F)(F)F | -10.9 |
| Cc1n[nH]c2ncc(C(=O)N3CCC[C@H]3c3ccc(Cl)cc3)cc12 | -17.4 |
| CC1COC2(CCN(CC2)C/3=N/C(=O)C4=CC(=CC(=C4S3)[N+]([O-])=O)C(F)(F)F)O1 (stereo not drawn) | -19.7 |
| CCC(C)N(C)C(=O)c1cc2ccccc2c(-c2ccccc2Cl)n1 (stereo not drawn) | -46.4 |
| CCc1ccc(/C=C2/SC(=S)NC2=O)cc1 | -29 |
| CCN([C@H]1CC[C@@H](CC1)N(C)CCOC)C2=C(C)C(=CC(=C2)C#CCN3CCOCC3)C(=O)NC\C4=C(C)\C=C(\C)NC4=O | -10.4 |
| CCOC(=O)C(C)OC1=CC=CC2=C1\C=C/N(CC(=O)NC3=CC=C4OCCOC4=C3)C2=O (stereo not drawn) | -19.6 |
| CCn1c(C(=O)N(C2CC2)C2CC2)cc2c3c(ncn3C)c(Nc3cc(C)n(C)n3)nc21 | -25.7 |
| CN(C)C(=O)[C@H](O)[C@H](Cc1ccccc1)NC(=O)c1cc2cc(Cl)ccc2[nH]1 | -14.2 |
| Cc1ccc(NC(=O)c2cccc(N(C)C)c2)cc1NC(=O)c1ccc(O)cc1 | -21.6 |

| Structure (SMILES) | efficacy [%] |
| --- | --- |
| CN(C)CCNC(=O)NC[C@H]1CC[C@@H]2[C@H](O1)c1cc(C(F)(F)F)ccc1N[C@H]2c1ccccc1 | -63.4 |
| Cc1cn2cc(C(=O)N(C)CCO)cc(N[C@@H]3CCOc4cccc(C)c43)c2n1 | -27.6 |
| CN(CCOc1ccc(-c2ccc3c(c2)OCO3)cc1C(C)(C)C)CC(=O)O | -58.3 |
| CN1C(=O)N(c2cc(Cl)cc(Cl)c2)C(=O)[C@]12CN(Cc1cc(C(=O)O)cs1)C[C@H]2c1ccc(C#N)cc1 | -6.34 |
| CN1CCN(CC1)C\2=C\3/C=C(/C)SC3=N/C4=CC=CC=C4N2 | -17.1 |
| CN1CCN(CCCNc2ncc(Cl)c(-c3cc4c(C(=O)NC5CC5)cccc4s3)n2)CC1 | -28.8 |
| COc1cc(NC(=O)c2ccc(-c3ccc(Cl)cc3)o2)cc(OC)c1 | -43.9 |
| COc1ccc([S+](=O)([O-])NCc2ccc(C(=O)NCCc3ccc(Cl)cn3)cc2)cc1 | -62.6 |
| COc1ccc(Cc2ccc(NC(N)=O)cc2)cc1-c1cccc(Cl)c1 | -74.8 |
| COc1ccc(CCC(=O)Nc2nc3ccc(Cl)cc3s2)cc1OC | -14.1 |
| COc1ccc(COc2cc3oc(=O)c4cc(C(C)O)ccc4c3cc2OC)cc1 (stereo not drawn) | -22 |
| C=C[C@H]1CN2CC[C@H]1C[C@H]2[C@H](O)c1ccnc2ccc(OC)cc12 | -34.1 |
| COc1nccc(-c2c(-c3ccc(F)cc3)ncn2C2CCC(O)CC2)n1 (stereo not drawn) | -34.5 |
| COc1nccc(-c2c(-c3ccc(F)cc3)ncn2C2CCNCC2)n1 | -39.7 |
| COC[C@@H](c1ccc(C(F)(F)F)cc1)N1CCN(C2(C)CCN(C(=O)c3c(C)ncnc3C)CC2)C[C@@H]1C | -15.4 |
| CONC(=O)c1ccccc1Nc1cc(Nc2cc(C)nn2C(C)C)ncc1Cl | -40.7 |
| C[C@H](c1ccc(F)cc1CCCC(=O)O)N(c1cc(F)ccc1F)[S+](=O)([O-])c1ccc(Cl)cc1 | -30.3 |
| Cc1noc(-c2ccc(-c3ccc(C4(C(=O)O)CC4)cc3)cc2)c1NC(=O)O[C@H](C)c1ccccc1 | -40.6 |
| C[C@H](NC(=O)Cc1cc(F)cc(F)c1)C(=O)N[C@@H]1C(=O)N(C)c2ccccc2-c2ccccc21 | -23.7 |
| C[C@](Cc1c[nH]c2ccccc12)(NC(=O)OC1C2CC3CC(C2)CC1C3)C(=O)NC[C@H](NC(=O)CCC(=O)O)c1ccccc1 (stereo partly drawn) | 9.82 |
| C[C@@]1(C(=O)Nc2ccc(F)nc2)CCCN1c1nc(Nc2cc(C3CC3)[nH]n2)c2cccn2n1 | -59.3 |

| Structure (SMILES) | efficacy [%] |
| --- | --- |
| Cn1cc(/C=C2\C(=O)Nc3cccnc32)c2ccccc21 | -35.8 |
| Cn1cc(-c2ccc3c(c2)CCN3C(=O)Cc2cccc(C(F)(F)F)c2)c2c(N)ncnc21 | -17.9 |
| Cn1cc(-c2ccc(-c3cncc(Cl)c3N3CCC4(CCNC4=O)CC3)cc2)cn1 | -49.2 |
| Cn1cc(-c2c[nH]c3ncnc(N4CCOCC4)c23)cn1 | -31.9 |
| Cn1ccc2cc3c(cc21)CCN3C(=O)Nc1cccnc1 | -22.8 |
| O=C(N[C@H]1CN2CCC1CC2)c1ccc(Cl)cc1 | -55.8 |
| O=C(Nc1ccc2c(c1)CCN(Cc1ncn[nH]1)C2)c1ccccc1-c1ccc(C(F)(F)F)cc1 | 17.5 |
| O=C1NC(=O)/C(=C\c2ccc(-c3ccc(F)cc3)o2)S1 | -23.2 |
| O=C(Nc1cccnc1)c1cc(-c2ccnc(F)c2)ccc1OCc1ccccc1 | -24.6 |
| N#CN1CCC[C@@H](n2nc(-c3ccc(Oc4ccc(F)cc4F)cc3)c(C(N)=O)c2N)C1 | -38.1 |
| NC(=O)c1cccc(N)c1 | -10.2 |
| NC(CC1c2ccccc2Oc2ccccc21)(C(=O)O)C1CC1C(=O)O (stereo not drawn) | -10.8 |
| Nc1nccc(-c2c(-c3ccc(F)cc3)ncn2C2CCCCC2)n1 | -55.4 |
| Nc1ncnc2c1C(=O)N(c1ccc([C@H]3CC[C@H](CC(=O)O)CC3)cc1)CCO2 | -5.95 |
| Nc1nc(OC(c2ccc(-c3cccc(F)c3)cc2)C(F)(F)F)cc(-c2ccc(C[C@H](N)C(=O)O)cc2)n1 (stereo partly drawn) | -21.2 |
| O=C(NC1CCOCC1)c1ccc(-c2cc(-c3c[nH]nc3-c3ccccn3)ccn2)cc1 | -24 |
| O=C1NC(=O)/C(=C/c2ccc3nccnc3c2)S1 | -27.3 |
| O=C1\C=C(/OC2=C1C=CC=C2C3=CC=CC=C3)N4CCOCC4 | -24.3 |
| O=C(O)/C(S)=C/c1ccc(I)cc1 | -6.45 |
| O=[S+]([O-])(O)c1ccc2cc(/N=N/c3cc([S+](=O)([O-])O)c4cccnc4c3O)ccc2c1 | -23.5 |
| O=C1Cc2cc(C(=O)NC3C[C@H]4CC[C@@H](C3)N4[S+](=O)([O-])CC3CCN(CCCC(F)(F)F)CC3)c(Cl)cc2N1 (stereo partly drawn) | -9.6 |
